Source: patent US5043165A, “Novel liposome composition for sustained release of steroidal drugs” (priority 1988, dated 1991)
Entries after “also recorded” stand apart in the source; their conditions may differ. Values belong to the compound of their own block, whether it stands above or below them.

How the values were obtained:
[1] = mouse, in vivo, iv
[2] = Plasma pharmacokinetics of 14C-BDP after i.v. injection or intratracheal instillation; format: in vivo, male Sprague-Dawley rats; conditions: rat
Experimental: In order to determine the rate of absorption of the steroidal drug into the plasma after intratracheal administration, various formulations containing either the free steroid or steroid encapsulated in liposomes were prepared and tested.
The free drug control was administered intravenously to provide relative basis for measurement of bioavailability. […] The resulting plasma profiles, given in FIG. 1, illustrate the physiological removal of steroid from the blood circulation. […] As will be seen from FIG. 2, the rate of absorption of free steroid from lungs to the plasma is rapid and the physiological removal from the plasma follows the same course as that of the free drug. […] Thus, the rate of absorption from lungs to plasma of free steroid and steroid encapsulated in conventional liposomes is not much different and follows similar curve.
Plasma and lung levels of radiolabel were measured as previously described. The decrease in plasma concentration versus time following free drug administration was biphasic (FIG. 4).

[3] = TLC assay of lung samples for metabolism of BDP before absorption; format: in vivo, rats; conditions: thin layer chromatographic assay
[4] = Partition coefficient between octanol and phosphate buffer saline; format: physicochemical; conditions: pH 7.4
[5] = rat, in vivo
[6] = in vivo; cited from earlier work
[7] = Intrathecal administration: drug in cranial and spinal compartments and cerebrospinal fluid; conditions: 50 ul, 20 mg/ml

persistence in plasma [1]: disappears rapidly from the plasma
SMILES: C[C@H]1C[C@H]2[C@@H]3CCC4=CC(=O)C=C[C@]4(C)[C@@]3(Cl)[C@@H](O)C[C@]2(C)[C@@]1(O)C(=O)CO [Free beclomethasone, beclomethasone]

plasma kinetics (in words) ([2]; compared with free drug): biphasic | BDP associated with the octanol (octanol/phosphate buffer saline partition) [4]: 95% | apparent half-life in lungs (elimination of radiolabel already released, not absorption) [5]: 3.0 h | drug absorbed before the first time point [5]: over 98% | radiolabel removed/absorbed from the lungs ([5]; iv): 99.7%
SMILES: CCC(=O)OCC(=O)[C@@]1(OC(=O)CC)[C@@H](C)C[C@H]2[C@@H]3CCC4=CC(=O)C=C[C@]4(C)[C@@]3(Cl)[C@@H](O)C[C@@]21C [BDP, beclomethasone dipropionate]
absorption from lungs (in words) ([2]; intratracheal instillation, listed as free BDP): rapid; also recorded: quickly removed from the lungs into plasma | metabolism of BDP prior to leaving the lungs [3]: no detectable metabolism of BDP prior to leaving the lungs | secondary adverse reactions [6]: localized infection of the mouth and pharynx with Candida albicans or Aspergillus niger, hoarseness and dry mouth

SMILES: C[C@]12CCC(=O)C=C1CC[C@@H]1[C@@H]2C(=O)C[C@@]2(C)[C@H]1CC[C@]2(O)C(=O)CO [free cortisone, cortisone]
time to almost complete disappearance from cranial or spinal compartments [7]: ≤ 2.8 h | time to elimination from cerebrospinal fluid [7]: ≤ 2.8 h
